The term solubility denotes the concentration that dissolves in the medium under given conditions.

Where “and” joins values, the source holds several entries; their conditions need not be identical. Identical values can stand only once. Like-named read-outs stand apart in the source and are kept apart here.

The nature of data set [1]: In vitro transdermal permeation, diffusion cell, hairless mouse skin. The format is in vitro ADME, hairless mice. From the text: The abdominal skin from male hairless mice (mice of the HRS strain carrying a mutant Hr gene (hr/hr)) aged 6-8 weeks was cleaned of any subcutaneous fat with blood vessels while maintaining the integrity of the viable epidermis and SC. The excised skin was used immediately after preparation and was not stored prior to use.
(§1) A custom made finite dosing diffusion cell (AGB Scientific, Dublin, Ireland, FIG. 1) based upon and modified from the Keshary-Chien type diffusion cell was used for in vitro permeation studies.
(§2) Three to five diffusion cells were used in each permeation experiment and monitoring was performed over a 48 hour period. The cells were linked in series to a thermostatically controlled circulation bath set at 35° C. to mimic human skin surface temperature. Each cell was placed on a stir-plate set at a defined stirring rate of 1,000 rpm. The surface area for permeation provided by each cell was 3.14 cm^2.
(§3) Data collected from each permeation study included:
(§4) 1) the average maximum flux obtained in 48 hours (Jmax),
(§5) 2) the total absorption characterized as the total weight of peptide delivered transdermally into the receiver compartment over a 48 hour period,
(§6) 3) the lag time to detectable flux which was equivalent to the latest sampling time at which no peptide was detectable by HPLC analysis of the receiver solution, and
(§7) 4) an equivalent 48-hour steady state flux was determined by obtaining the slope of the best-fit line for a plot of cumulative flux per unit area versus time (described by McDaid, D. M. et al., Int. J. Pharm., 133:71-83, 1996).
(§8) Fresh hairless mouse skin samples or fresh or freshly thawed pig skin samples were mounted onto the diffusion cell with the SC topmost and in contact with the donor system. A rubber or plastic ring was placed on top of the skin sample to secure it in position. The combination of the diffusion cell top, the skin and the rubber ring was securely fastened together by means of a threaded cap. A recorded volume of receiver solution was added to the receiver compartment and maintained at 35° C. The receiver solution was 60/40 (v/v) PBS/propylene glycol (pH 7.1). The propylene glycol fraction was used to increase the solubility of the somatostatin-fatty acid salts. Previous work reported by Morgan et al. (J. Pharm. Sci., 87:1213-1218, 1998) has shown that a 50/50 water/propylene glycol receptor solution had no detrimental effect on the barrier integrity of both hairless mouse and porcine skin.
The receiver solution was allowed to equilibrate at 35° C. for 30 minutes. […] A narrow-bore hypodermic needle was used to withdraw 1 ml samples from the receiver compartment via the sampling port; at each sampling time, an equal volume of drug-free receiver solution was immediately added back to the receiver compartment. Samples were analyzed by HPLC.
HPLC determination of peptide content in the receiver solution along with the known surface area of skin used (3.14 cm^2) allowed for calculation of transdermal flux (in units of μg/cm^2/hr) for each time point. Panels 1 and 2 of FIG. 2 show flux […] profiles for the myristate, octanoate, decanoate, linoleate, nonanote, acetate and laurate […]
Once lead candidate somatostatin-fatty acid salts had been selected on the basis of in vitro permeation in a DMSO solution, the effect of different solvents and penetration enhancers on permeation was assessed. The concentration of the donor solution corresponded to 5 mg/ml free base peptide for all experiments and all donor solutions were equilibrated at 37° C. for one hour prior to use. These experiments were carried out using hairless mouse skin and pigskin barriers.

Data set [2] can be described thus: Peptide content in upper and lower skin layers after permeation (tape stripping). The format is in vitro ADME, hairless mice. As to conditions: percentage of total applied dose, hairless mouse skin. On the procedure:
The quantity of peptide present in the upper SC and lower dermis layers of the hairless mouse skin samples were determined for each concentration of analog tested. To determine analog concentrations in the SC, the skin samples were wiped clean of donor solution, patted dry and stripped twenty times with Sellotape®, using a fresh piece for each stripping. The twenty pieces of Sellotape® were pooled in a 50 ml centrifuge tube and 10 ml of 50/50 (v/v) acetonitrile/0.1M TFA was added. The sample was homogenized at 20,000 rpm for 5 minutes and then filtered. The peptide content was determined using HPLC. To determine peptide content in the dermal layer, the remaining skin sample was cut into fine pieces, homogenized and analyzed as described.

The nature of data set [3]: In vitro transdermal permeation, diffusion cell, pig epidermis. Format: in vitro ADME, domestic pigs. On the procedure:
The viable epidermal layer was removed from the flanks of freshly sacrificed four month-old female domestic pigs. The flank area of each animal was carefully shaved and the upper 200 μm of skin (Meyer, W., et al., Curr. Prob. Dermatol., 7: 39-52, 1978; de Jalón, et al., J. Control. Rel., 75:191-197, 2001) was harvested using an electric dermatome (Robbins Instruments, Chatham, N.J., U.S.A.). Pigskin epidermal specimens were frozen at −18° C. between layers of PBS-soaked tissue paper enclosed in aluminum foil for up to two weeks prior to use in in vitro permeation studies.
as §1, §2, §3, §4, §5, §6, §7, §8
The receiver solution was allowed to equilibrate at 35° C. for 30 minutes. The experiment was initiated by the application of 1 ml of donor solution containing approximately 5 mg free base peptide in DMSO to the skin surface followed by sealing of the donor compartment with Parafilm®. A narrow-bore hypodermic needle was used to withdraw 1 ml samples from the receiver compartment via the sampling port; at each sampling time, an equal volume of drug-free receiver solution was immediately added back to the receiver compartment. Samples were analyzed by HPLC.
HPLC determination of peptide content in the receiver solution along with the known surface area of skin used (3.14 cm^2) allowed for calculation of transdermal flux (in units of μg/cm^2/hr) for each time point. Panels 1 and 2 of FIG. 2 show flux profiles obtained for the oleate salts of Compound A and Compound B in DMSO which far exceeded the flux profiles for the myristate, octanoate, decanoate, linoleate, nonanote, acetate and laurate salts of Compound A as well as the acetate salt of Compound B in DMSO. […]

Data set [4] in a line: Solubility of somatostatin fatty-acid salts. The format is physicochemical. The following applies: 24 hours. On the procedure: The solubilities of Compound A and Compound B oleate were determined in deionized water, phosphate-buffered saline (PBS; pH 7.4) and n-octanol. Analysis was carried out by placing an excess of each salt with 1 ml of the selected solvent into four 4 ml sealed HPLC vials. The samples were allowed to equilibrate at 37° C. for 24 hours with shaking. Each of the four dispersions was then filtered through a 0.2 μm nylon membrane (Pall Gelman, Ann Arbor, Mich., U.S.A.). Prior to HPLC analysis, the n-octanol samples were diluted 1:100 with methanol and the PBS and deionized water samples were diluted 1:10 in de-ionized water. Table 7 lists the solubilities of Compound A and Compound B oleate salts in deionized water, PBS and n-octanol.

The nature of data set [5]: Calculation of required transdermal delivery rate in humans (Eqn. 10.5). As to conditions: human; skin area of 20 cm^2; Cpss 1 ng/ml (Compound A), 0.5 ng/ml (Compound B, using Compound A parameters). On the procedure:
The values obtained for the intermediate dose of 21 μg/Kg were used to determine the necessary input rate, i.e., steady state flux, required in humans to achieve therapeutic plasma levels as outlined by Lee et al. (Res. Comm. Mol. Path. Pharmacol., 85, 337-346, 1994) in their studies on melatonin. […] As described by Chatterjee et al. (Pharm. Res., 14:1058-1065, 1997), the following equation can be used to predict required delivery rates, assuming transdermal delivery can be treated as an intravenous infusion:
where K0 is the required zero order delivery rate to achieve a therapeutic steady state plasma concentration (Cpss). […] Thus, for a skin area of 20 cm^2, the required steady-state transdermal flux would be 0.45 μg/cm^2/hr. Assuming a therapeutic plasma level of 0.5 ng/ml for Compound B and utilizing the relevant Compound A parameters, a required steady-state flux of 0.23 μg/cm^2/hr was calculated for a skin area of 20 cm^2.

The mark [6] stands for this setting: donor 55% EtOH 40% Water 5% Cineole, 5 mg/ml free base peptide.
Where [7] appears, read: donor 55/45 (v/v) EtOH/H2O, approx. 5 mg/ml free base peptide.
Where [8] appears, read: donor DMSO, approx. 5 mg/ml free base peptide (4.9 mg/ml Compound A oleate, 5.2 mg/ml Compound A acetate).
[9] abbreviates: donor DMSO, approx. 5 mg/ml free base peptide (4.9 mg/ml Compound A oleate, 5.2 mg/ml Compound A acetate), 48 hr.
The mark [10] stands for this setting: donor propylene glycol, approx. 5 mg/ml free base peptide.
Where [11] appears, read: pig epidermis, donor 55% EtOH 40% Water 5% Cineole, 5 mg/ml free base peptide.

Turning to `CC(C)[C@@H]1NC(=O)[C@H](CCCCN)NC(=O)[C@@H](Cc2c[nH]c3ccccc23)NC(=O)[C@H](Cc2ccc(O)cc2)NC(=O)[C@@H](NC(=O)[C@H](N)Cc2ccc3ccccc3c2)CSSC[C@@H](C(=O)N[C@H](C(N)=O)[C@@H](C)O)NC1=O` [Compound A di-oleate, D-2-Nal-c(Cys-Tyr-D-Trp-Lys-Val-Cys)-Thr-NH2], the Jmax amounted to 24.942 μg/cm^2/hr in data set [1] (8.9 mg/ml free base in DMSO); 14.100 μg/cm^2/hr in data set [1] (setting [6]); 11.343 μg/cm^2/hr in data set [1] (setting [7]); 19.887 μg/cm^2/hr in data set [1] (setting [9]); 0.366 μg/cm^2/hr in data set [1] (setting [10]); 9.019 μg/cm^2/hr in data set [3] (setting [11]). The Jss amounted to 3.342 μg/cm^2/hr in data set [1] (8.9 mg/ml free base in DMSO); 6.359 μg/cm^2/hr in data set [1] (setting [6]); 5.871 μg/cm^2/hr in data set [1] (setting [7]); 2.858 μg/cm^2/hr in data set [1] (setting [9]); 0.318 μg/cm^2/hr in data set [1] (setting [10]); 1.407 μg/cm^2/hr in data set [3] (setting [11]). Further, the “Lag Time” value in data set [1] (8.9 mg/ml free base in DMSO) was 0.5 h; in data set [1] (setting [6]), 2 h; in data set [1] (setting [7]), 2 h; in data set [1] (setting [8]) it was 1.0 h and 1 h; in data set [1] (setting [10]) it was 24 h; in data set [3] (setting [11]), 1 h. Moreover, the “Total Absorption” value in data set [1] (8.9 mg/ml free base in DMSO) turned out to be 522.82 μg/48 hr; in data set [1] (setting [6]), 825.35 μg/48 hr; in data set [1] (setting [7]), 770.02 μg/48 hr; in data set [1] (setting [8]), 448.52 μg/48 hr; in data set [1] (setting [10]), 55.17 μg/48 hr; in data set [3] (setting [11]), 231.09 μg/48 hr. Also, the “increase in total peptide flux over 48 hours due to cineole” value in data set [1] (55/40/5 ethanol/water/cineole vs 55/45 ethanol/water) was determined as 7.19%. The “flux profile in DMSO compared with other salts” value in data set [1] (vs myristate, octanoate, decanoate, linoleate, nonanoate, acetate, laurate salts of Compound A and acetate of Compound B) is “far exceeded”. Further, the Wt. % delivered was 9.23% in data set [2] (4.9 mg free base in DMSO) and 5.84% in data set [2] (8.9 mg free base in DMSO). The “Wt. % in lower skin layers” value in data set [2] (4.9 mg free base in DMSO) is 7.63%; in data set [2] (8.9 mg free base in DMSO), 1.09%. Also, the results for the “Wt. % in upper skin layers” value in data set [2] (4.9 mg free base in DMSO) and in data set [2] (8.9 mg free base in DMSO) were 20.22% and 49.93%, respectively. Moreover, the solubility in data set [4] (deionized water, 37° C., read-out: Solubility DI H2O) amounted to 35 µg/mL; in data set [4] (n-octanol, 37° C., read-out: Solubility n-Octanol) it was 123000 µg/mL; in data set [4] (pH 7.4, PBS pH 7.4, 37° C., read-out: Solubility PBS), 40 µg/mL.

Consider `CC[C@@H]1NC(=O)[C@H](CCCCN)NC(=O)[C@@H](Cc2c[nH]c3ccccc23)NC(=O)[C@H](Cc2ccc(O)cc2)NC(=O)[C@@H](NC(=O)[C@@H](Cc2ccccc2)NC(=O)CN2CCN(CCO)CC2)CSSC[C@@H](C(=O)N[C@H](C(N)=O)[C@@H](C)O)NC1=O` [Compound B, [4-(2-hydroxyethyl)]-1-piperazinylacetyl-D-Phe-c(Cys-Tyr-D-Trp-Lys-Abu-Cys)-Thr-NH2], for which the “required steady-state transdermal flux” value in data set [5] was 0.23 μg/cm^2/hr. Also, in data set [3], the “estimated daily systemic delivery across human skin” value is recorded as “approximately 2.665 mg”.

The record behind these values is patent publication US20130085105A1, “Transdermal Administration Of Peptides” (The Provost, Fellows and Scholars of the College of Holy …, priority 2010, published 2013).
